Where no end group is shown, it is not given here.
Test system: Human macrophages
Test: H₂O₂ production by IFN-γ activated macrophages (scopoletin fluorometric assay)
Type: cell-based
Settings: 3 hrs preincubation, up to 1000 ng/ml (2.5 X 10⁻⁷M); IFN-γ 200 units/ml; 3 days

## Calcitonin: neuropeptide derived from the same gene as CGRP, available commercially (CGNLSTCMLGTYTQDFNKFHTFPQTAIGVGAP; ends and bridges not checked; cysteine pairing not given here; UniProt P01258 85-116, looked up)
  inhibition of H₂O₂ production by macrophages: inhibit H₂O₂ production by macrophages to a degree similar to that seen with CGRP
